Test results: publication PMC10094543 (International Journal of Molecular Sciences, 2023)
Several values for one entry are separate records, joined by “and”; a condition that tells them apart may be missing. Equal entries are not always repeated. Where two headings read alike, the source gives them in different places.

What was measured:
[1] = test system: P. aeruginosa BCCP; conditions: cited from earlier work
[2] = molecular target: mixed-valence NgBCCP (P heme); conditions: read-out: Kapp (apparent dissociation constant); pH 6
[3] = test system: NgBCCP; assay type: biochemical, Neisseria gonorrhoeae
[4] = molecular target: N. europaea BCCP; conditions: pH 7; cited from earlier work
[5] = molecular target: T1, NgBCCP (Neisseria gonorrhoeae bacterial peroxidase) (Neisseria gonorrhoeae, UniProt Q5F5Z9); assay: steady-state kinetics, ABTS oxidation at […] nm; assay type: biochemical
T1 construct: gene NGO_1769; globular domain only (lipid anchor and AAEAP linker absent), pelB signal peptide, C-terminal His-tag; E. coli BL21(DE3) with pEC86; 38 kDa; di-heme c; Ca-dependent monomer/dimer equilibrium, dimer in crystal
T1 sequence (Q5F5Z9 59-387): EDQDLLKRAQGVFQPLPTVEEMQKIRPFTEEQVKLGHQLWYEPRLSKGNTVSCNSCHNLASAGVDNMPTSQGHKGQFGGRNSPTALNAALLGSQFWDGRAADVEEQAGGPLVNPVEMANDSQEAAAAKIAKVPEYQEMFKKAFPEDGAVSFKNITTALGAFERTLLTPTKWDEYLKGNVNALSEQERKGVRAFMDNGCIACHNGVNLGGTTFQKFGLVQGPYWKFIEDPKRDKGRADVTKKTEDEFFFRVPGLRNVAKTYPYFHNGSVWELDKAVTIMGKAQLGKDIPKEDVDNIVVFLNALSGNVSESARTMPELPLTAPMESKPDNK

azide
inhibition mechanism [1]: non-competitive
Ki ([1]; pH 6): 3.1 mM
Kd [2]: 3.8 mM
Vmax app [3]: 0.56 ± 0.003 µM/s and 0.53 ± 0.004 µM/s and 0.71 ± 0.001 µM/s and 0.66 ± 0.010 µM/s and 0.59 ± 0.001 µM/s
a (α) [3]: 2.4
b (β) [3]: 0.0
mechanism of inhibition ([3]; pH 7.5): non-competitive/partially competitive
Ki [4]: 4.7 mM

c1c[nH]cn1 [imidazole]
Vmax app [3]: 0.55 ± 0.01 µM/s and 0.49 ± 0.01 µM/s and 0.48 ± 0.01 µM/s and 0.65 ± 0.01 µM/s and 0.44 ± 0.02 µM/s and 0.63 ± 0.04 µM/s and 0.58 ± 0.02 µM/s
a (α) [3]: 2.8
b (β) [3]: 0.0
mechanism of inhibition [3]: partially uncompetitive
Ki ([3]; pH 7.5): 9 ± 4 mM
mechanism of inhibition ([3]; pH 7.5): non-competitive/partially competitive
Ki [5]: 9 ± 4 mM
